According to US20220363719A1, “Reverse Amide-Linked Melanocortin Receptor-Specific Cyclic Peptides” (Palatin Technologies, Inc., priority 2020, published 2022):
Where a SMILES comes first, the peptide text is derived from it. Bridges are numbered along the chain shown (N, C = ends). [ ]: non-standard residue; d: D form. The star is where a group is joined. ξ: configuration not given here. d1Nal = N[C@H](Cc1cccc2ccccc12)C(=O)O; Nle = CCCC[C@H](N)C(=O)O; Dab = NCC[C@H](N)C(=O)O; ξHyp = O=C(O)C1CC(O)CN1; Dap = NC[C@H](N)C(=O)O; Hexanoyl = CCCCCC(=O)*; Ava = NCCCCC(=O)O; Bn = c1ccc(C*)cc1; βAla = NCCC(=O)O

Experiments:
Assay type in all cases: cell-based
[1] = molecular target: T1, hMC4r (Homo sapiens, UniProt P32245); assay: cAMP agonist activity assay performed at CEREP (HTRF), MC4; design: expressed in transfected cells; settings: determined by CEREP, CHO-K1 cells
T1 sequence (P32245 whole entry): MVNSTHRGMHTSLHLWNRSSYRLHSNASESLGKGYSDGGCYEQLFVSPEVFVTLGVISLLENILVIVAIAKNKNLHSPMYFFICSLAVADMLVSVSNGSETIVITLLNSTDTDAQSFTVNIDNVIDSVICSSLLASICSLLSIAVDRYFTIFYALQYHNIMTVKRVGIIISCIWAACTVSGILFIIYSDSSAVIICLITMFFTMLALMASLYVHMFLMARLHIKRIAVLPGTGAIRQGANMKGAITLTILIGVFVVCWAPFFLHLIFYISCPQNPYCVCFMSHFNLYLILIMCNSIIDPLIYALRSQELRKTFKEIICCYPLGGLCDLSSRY
Method: (§1) Evaluation of the agonist activity of compounds at the melanocortin receptors was determined by measuring their effects on cAMP production using the HTRF detection method at CEREP (Eurofins CEREP SA, Celle-Lévescault, France). The cells were suspended in HBSS buffer (Invitrogen) complemented with 20 mM HEPES (pH 7.4) and 500 μM IBMX, then distributed in microplates and incubated in the presence of HBSS (basal control), the test compound or the reference agonist. Incubation time, temperature, cell number, reference agonist and cell line information are included in the Table 1 below. For stimulated control measurement, separate assay wells contain reference compound. Following incubation, the cells are lysed and the fluorescence acceptor (D2-labeled cAMP) and fluorescence donor (anti-cAMP antibody labeled with europium cryptate) were added. After 60 minutes at room temperature, the fluorescence transfer was measured at excitation wavelength 337 nm and emission wavelengths 620 and 665 nm using a microplate reader (Envision, Perkin Elmer). The cAMP concentration was determined by dividing the signal measured at 665 nm by that measured at 620 nm (ratio).
(§2) The results are expressed as a percent of the control response to 1 μM of the reference. […]

[2] = molecular target: T1, hMC4r; assay: Alternative assay for agonist activity (intracellular cAMP), HEK-293 cells, recombinant MC4r; design: expressed in transfected cells; host or cells: HEK-293; settings: for Emax: HEK293, not CEREP, reference NDP-α-MSH, read-out: Emax percent hMC4r (percent of the maximal response obtained with the positive control); for EC50: not CEREP, cAMP HTRF
Method: (§3) Accumulation of intracellular cAMP was examined as a measure of the ability of the peptides to elicit a functional response in either HEK-293 cells that express recombinant MC3r or MC4r or B16-F10 (mouse) and HBL (human) cell lines that express native MC1 r. Confluent cells were detached from culture plates by incubation in enzyme-free cell dissociation buffer. Dispersed cells were suspended in Hank's Balanced Salt Solution containing 10 mM HEPES (pH 7.5), 1 mM MgCl2, 1 mM glutamine, 0.5% albumin and 0.3 mM 3-isobutyl-1-methyl-xanthine (IBMX), a phosphodiesterase inhibitor. The cells were dispensed into 96-well plates at a density of 0.5×10^5 cells per well and pre-incubated for 10 minutes. Cells were exposed for 15 minutes at 37° C. to peptides dissolved in DMSO (final DMSO concentration of 1%) at a concentration range of 0.05-5000 nM in a total assay volume of 200 μL. NDP-α-MSH was used as the reference agonist. cAMP levels were determined by an HTRF® cAMP cell-based assay system from Cisbio Bioassays utilizing cryptate-labeled anti-cAMP and D2-labeled cAMP, with plates read on a Perkin-Elmer Victor plate reader at […]. Data analysis was performed by nonlinear regression analysis with Graph-Pad Prism® software. The maximum efficacies of the test peptides were compared to that achieved by the reference melanocortin agonist NDP-α-MSH.

[3] = molecular target: T2, mMC1r (Mus musculus, UniProt Q01727); assay: Alternative assay for agonist activity (intracellular cAMP), B16-F10 cells, native MC1r; design: B16-F10 (mouse) and HBL (human) cell lines that express native MC1 r; endogenous in cells; host or cells: B16-F10 mouse melanoma cells; settings: not CEREP; for EC50: cAMP HTRF; for Emax: reference NDP-α-MSH, read-out: Emax percent mMC1r (percent of the maximal response obtained with the positive control)
T2 sequence (Q01727 whole entry): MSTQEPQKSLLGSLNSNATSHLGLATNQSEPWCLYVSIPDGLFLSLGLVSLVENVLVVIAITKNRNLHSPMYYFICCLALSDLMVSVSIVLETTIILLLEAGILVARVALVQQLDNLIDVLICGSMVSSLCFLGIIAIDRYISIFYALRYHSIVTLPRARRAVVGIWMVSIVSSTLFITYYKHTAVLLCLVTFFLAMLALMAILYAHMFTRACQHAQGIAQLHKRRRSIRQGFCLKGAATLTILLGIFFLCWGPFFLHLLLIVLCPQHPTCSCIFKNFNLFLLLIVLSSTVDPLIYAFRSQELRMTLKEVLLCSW
Method: as §3

[4] = molecular target: T2, mMC1r; assay: cAMP agonist activity assay performed at CEREP (HTRF), MC1; settings: determined by CEREP, B16-F1 cells; for EC50: cAMP HTRF; for Emax: control NDP-alpha-MSH, read-out: Emax percent mMC1r* (percent of the maximal response obtained with the positive control)
Method: as §1
(§4) The results are expressed as a percent of the control response to 1 μM of the reference. The standard reference agonist is tested in each experiment at several concentrations to generate a concentration-response curve from which its EC50 value is calculated.

[5] = molecular target: T3, hMC3r (Homo sapiens, UniProt P41968); assay: Alternative assay for agonist activity (intracellular cAMP), HEK-293 cells, recombinant MC3r; design: expressed in transfected cells; host or cells: HEK-293; settings: for Emax: HEK293, not CEREP, reference NDP-α-MSH, read-out: Emax percent hMC3r (percent of the maximal response obtained with the positive control); for EC50: not CEREP, cAMP HTRF
T3 sequence (P41968 whole entry): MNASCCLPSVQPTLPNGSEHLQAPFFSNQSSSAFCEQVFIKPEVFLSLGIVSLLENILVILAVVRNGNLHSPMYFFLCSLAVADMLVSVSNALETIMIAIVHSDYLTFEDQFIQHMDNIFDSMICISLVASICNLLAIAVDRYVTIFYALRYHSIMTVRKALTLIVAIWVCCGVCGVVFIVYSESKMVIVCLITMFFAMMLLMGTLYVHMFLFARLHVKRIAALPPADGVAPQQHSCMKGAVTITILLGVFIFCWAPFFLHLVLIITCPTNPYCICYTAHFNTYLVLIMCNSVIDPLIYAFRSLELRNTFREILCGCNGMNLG
Method: as §3

[6] = molecular target: T4, hMC5r (Homo sapiens, UniProt P33032); assay: cAMP agonist activity assay performed at CEREP (HTRF), MC5; settings: determined by CEREP, CHO-K1 cells; for EC50: cAMP HTRF; for Emax: control Alpha-MSH, read-out: Emax percent hMC5r* (percent of the maximal response obtained with the positive control)
T4 construct: Eurofins CEREP SA
T4 sequence (P33032 whole entry): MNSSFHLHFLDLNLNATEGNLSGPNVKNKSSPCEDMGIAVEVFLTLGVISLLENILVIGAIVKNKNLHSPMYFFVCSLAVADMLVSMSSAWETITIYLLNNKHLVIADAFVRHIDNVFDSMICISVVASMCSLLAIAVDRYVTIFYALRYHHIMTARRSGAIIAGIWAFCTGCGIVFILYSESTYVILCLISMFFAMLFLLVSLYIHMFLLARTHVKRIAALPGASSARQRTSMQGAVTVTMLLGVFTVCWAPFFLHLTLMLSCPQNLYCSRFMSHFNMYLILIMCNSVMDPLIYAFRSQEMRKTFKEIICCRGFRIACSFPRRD
Method: as §1, §4

[7] = molecular target: T3, hMC3r; assay: cAMP agonist activity assay performed at CEREP (HTRF), MC3; design: expressed in transfected cells; settings: determined by CEREP, CHO-K1 cells
Method: as §1, §2

[8] = molecular target: T4, hMC5r; assay: Agonist activity (EC50/Emax) at hMC5r, not determined by CEREP; settings: for Emax: read-out: Emax percent hMC5r (percent of the maximal response obtained with the positive control)
[9] = molecular target: T5, hMC1r (Homo sapiens, UniProt Q01726); assay: Alternative assay for agonist activity (intracellular cAMP), HBL cells, native MC1r; settings: not CEREP; for EC50: cAMP HTRF; for Emax: reference NDP-α-MSH, read-out: Emax percent hMC1r (percent of the maximal response obtained with the positive control)
T5 construct: B16-F10 (mouse) and HBL (human) cell lines that express native MC1 r; endogenous in cells; host or cells: HBL human melanoma cells
T5 sequence (Q01726 whole entry): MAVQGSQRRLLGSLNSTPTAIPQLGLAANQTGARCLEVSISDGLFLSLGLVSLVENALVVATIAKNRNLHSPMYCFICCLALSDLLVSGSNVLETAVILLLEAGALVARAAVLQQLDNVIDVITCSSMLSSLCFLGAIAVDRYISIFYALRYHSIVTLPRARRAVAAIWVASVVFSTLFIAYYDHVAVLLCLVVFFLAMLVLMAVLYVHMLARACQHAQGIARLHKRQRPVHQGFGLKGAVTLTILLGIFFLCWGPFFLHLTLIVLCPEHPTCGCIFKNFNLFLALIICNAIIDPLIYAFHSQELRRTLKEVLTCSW
Method: as §3

EC50 ([1]; cAMP HTRF) [nM] | Emax ([1]; control NDP-alpha-MSH, read-out: Emax percent hMC4r* (percent of the maximal response obtained with the positive control)) [%] | Emax [2] [%] | EC50 [2] [nM] | EC50 [3] [nM] | Emax [3] [%] | EC50 [4] [nM] | Emax [4] [%] | Emax [5] [%] | EC50 [5] [nM] | EC50 [6] [nM] | Emax [6] [%] | EC50 ([7]; cAMP HTRF) [nM] | Emax ([7]; control NDP-alpha-MSH, read-out: Emax percent hMC3r* (percent of the maximal response obtained with the positive control)) [%] | EC50 [8] [nM] | Emax [8] [%] | EC50 [9] [nM] | Emax [9] [%] | SMILES
0.82 | 50 | 39 | 0.5 | 3 | 58 | 260 | 65 | 12 | > 10000 | 0.22 | 110 | > 10000 | 9 | – | – | – | – | CCCC[C@H](NC(C)=O)C(=O)N[C@H]1CCCCNC(=O)CNC(=O)[C@H](Cc2c[nH]c3ccccc23)NC(=O)[C@H](CCCNC(=N)N)NC(=O)[C@@H](Cc2cccc3ccccc23)NC(=O)C2CC(OCc3ccccc3)CN2C1=O (some centres unmarked) [Peptide 1] (Ac-[Nle]K[ξHyp](Bn)[d1Nal]RWG; lactam 2-C)
– | – | 26 | 5 | 17 | 74 | – | – | 7 | > 10000 | 2 | 97 | – | – | 1 | 71 | – | – | CCCC[C@H](NC(C)=O)C(=O)N[C@H]1CNC(=O)CCNC(=O)[C@H](Cc2c[nH]c3ccccc23)NC(=O)[C@H](CCCNC(=N)N)NC(=O)[C@@H](Cc2cccc3ccccc23)NC(=O)C2CC(OCc3ccccc3)CN2C1=O (some centres unmarked) [Peptide 7] (Ac-[Nle][Dap][ξHyp](Bn)[d1Nal]RW[βAla]; lactam 2-C)
– | – | 111 | 0.9 | 113 | 94 | – | – | 63 | 6 | 1600 | 71 | – | – | 207 | 54 | – | – | CC(=O)N[C@@H](CCCNC(=N)N)C(=O)N[C@H]1CCNC(=O)CCCCNC(=O)[C@H](Cc2c[nH]c3ccccc23)NC(=O)[C@H](CCCNC(=N)N)NC(=O)[C@@H](Cc2ccccc2)NC(=O)[C@H](CC(N)=O)NC1=O [Peptide 10] (Ac-R[Dab]N[dF]RW[Ava]; lactam 2-C)
– | – | 102 | 0.9 | – | – | 0.01 | 108 | – | – | 0.71 | 60 | – | – | 2 | 58 | 0.6 | 106 | CC(=O)N[C@@H](CCCNC(=N)N)C(=O)N[C@H]1CCNC(=O)CCCCNC(=O)[C@H](Cc2c[nH]c3ccccc23)NC(=O)[C@H](CCCNC(=N)N)NC(=O)[C@@H](Cc2ccc(F)cc2)NC(=O)[C@H](Cc2c[nH]cn2)NC1=O [Peptide 16]
– | – | 70 | 4300 | 350 | 80 | 2600 | 74 | 0.5 | > 10000 | > 10000 | 5 | – | – | – | – | 3 | 92 | CCCCCC(=O)N[C@H]1CNC(=O)CCCCNC(=O)[C@H](CCCNC(=N)N)NC(=O)[C@@H](Cc2ccccc2)NC(=O)[C@H](Cc2c[nH]cn2)NC1=O [Peptide 19] (Hexanoyl-[Dap]H[dF]R[Ava]; lactam 1-C)
